Assay [1] concerns sterol synthesis in the liver. The experiment in a line: inhibitory activity against sterol synthesis in mouse liver. The assay is classed as in vivo. The note with it: read-out: Sterol-synthesis inhibitory activity ED50. On the procedure: Detemination of inhibitory activity against sterol synsthesis in mouse liver
Sterol synthesis in the liver in mice was measured by the method of Koga et al. [Biochem. Biophys.
15 μl of [^14 C]acetate was intraperitoneally injected into each mouse. One hour later, the animal was sacrificed by decapitation and the liver was excised. Sterol synthesis in the liver was measured by the incorporation of [^14 C]activity into the digitoninprecipitable sterols.
The sterol synthesis activity in a control animal receiving only a 1% Tween 80 solution was defined as 100%.

For assay [2], the target named is T1, HMG-CoA reductase (Rattus norvegicus, UniProt P51639).
T1 sequence (P51639 1-887): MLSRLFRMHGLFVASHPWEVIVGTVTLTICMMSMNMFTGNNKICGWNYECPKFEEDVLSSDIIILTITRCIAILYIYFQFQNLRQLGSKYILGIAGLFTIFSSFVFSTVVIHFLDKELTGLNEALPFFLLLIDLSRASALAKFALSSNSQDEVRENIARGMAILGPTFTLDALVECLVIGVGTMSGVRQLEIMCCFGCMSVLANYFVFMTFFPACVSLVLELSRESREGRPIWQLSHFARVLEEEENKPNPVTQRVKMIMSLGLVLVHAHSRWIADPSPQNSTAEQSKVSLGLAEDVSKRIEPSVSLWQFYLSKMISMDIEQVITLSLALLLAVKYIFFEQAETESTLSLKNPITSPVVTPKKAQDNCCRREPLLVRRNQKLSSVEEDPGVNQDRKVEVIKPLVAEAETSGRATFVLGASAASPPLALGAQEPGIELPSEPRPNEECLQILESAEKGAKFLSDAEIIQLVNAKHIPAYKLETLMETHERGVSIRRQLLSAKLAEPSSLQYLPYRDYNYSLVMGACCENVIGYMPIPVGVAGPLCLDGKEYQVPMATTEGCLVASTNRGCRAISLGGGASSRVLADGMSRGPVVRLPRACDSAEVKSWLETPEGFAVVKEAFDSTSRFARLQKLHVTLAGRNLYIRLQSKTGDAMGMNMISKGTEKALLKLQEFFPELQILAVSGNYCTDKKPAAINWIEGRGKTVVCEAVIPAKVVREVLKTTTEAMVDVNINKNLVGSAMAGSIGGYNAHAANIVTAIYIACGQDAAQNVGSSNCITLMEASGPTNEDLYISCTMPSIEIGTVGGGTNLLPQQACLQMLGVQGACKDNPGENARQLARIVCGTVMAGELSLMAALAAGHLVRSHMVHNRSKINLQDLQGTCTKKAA
The experiment in a line: HMG-CoA reductase inhibitory activity. The format is biochemical. The note with it: rat liver microsomal fraction, 0.2 mM [14C]HMG-CoA, pH 7.4, 15 minutes at 37° C. (In general: Liver microsomes are vesicles of endoplasmic reticulum, rich in cytochrome P450 enzymes.)

Setting [3] is: mice, oral, 2 hours before [14C]acetate, dose required to inhibit sterol synthesis in the liver by 50%.

One may read the ED50 as the dose that gives a 50% effect, or the effect in half of the subjects. As usually defined, the IC50 is the midpoint of a concentration-inhibition curve. A high value points to a need for much substance.

Like-named read-outs stand apart in the source and are kept apart here.

With `CCCC(CCC)C(=O)O[C@H]1C[C@H](O)C=C2C=C[C@H](C)[C@H](CC[C@@H](O)C[C@@H](O)CC(=O)[O-])[C@H]21.[Na+]`, the ED50 in assay [1] (po) is 0.15 mg/kg. Also, the half-maximal inhibitory concentration (IC50) in assay [2] came out at 35.5 nM.
For the compound `CCC(C)(CC)C(=O)O[C@H]1C[C@H](O)C=C2C=C[C@H](C)[C@H](CC[C@@H](O)C[C@@H](O)CC(=O)O)[C@H]21` [Example 51, Sodium (3R,5R)-3,5-dihydro-7-[(1S,2S,6S,8S,8aR)-6-hydroxy-2-methyl-8-(2-ethyl-2-methylbutyryloxy)-1,2,6,7,8,8a-hexahydro-1-naphthyl]heptanoate], the 50% effective dose (ED50) in assay [1] (setting [3]) stood at 0.063 mg/kg. The same compound displayed an IC50 in assay [2] of 33.8 nM.
For `CCC(CC)(CC)C(=O)O[C@H]1C[C@H](O)C=C2C=C[C@H](C)[C@H](CC[C@@H](O)C[C@@H](O)CC(=O)O)[C@H]21` [Example 52, Sodium (3R,5R)-3,5-dihydroxy-7-[(1S,2S,6S,8S,8aR)-6-hydroxy-2-methyl-8-(2.2-diethylbutyryloxy)-1,2,6,7,8,8a-hexahydro-1-naphthyl]heptanoate], in assay [1] (setting [3]), the ED50 stood at 0.054 mg/kg. The midpoint of inhibition in assay [2], the IC50, lay at 32.3 nM.
The like results for `C=CCC(CC)(CC)C(=O)O[C@H]1C[C@H](O)C=C2C=C[C@H](C)[C@H](CC[C@@H](O)C[C@@H](O)CC(=O)O)[C@H]21` [Example 64, Sodium (3R,5R),3,5-dihydroxy-7-[(1S,2S,6S,8S,8aR)-6-hydroxy-2-methyl-8-(2,2-diethyl-4-pentenoyloxy)-1,2,6,7,8,8a-hexahydro-1-naphthyl]heptanoate] were, in that order, 0.13 mg/kg and 34.4 nM.
The like results for `C=CCC(CC)(CC=C)C(=O)O[C@H]1C[C@H](O)C=C2C=C[C@H](C)[C@H](CC[C@@H](O)C[C@@H](O)CC(=O)O)[C@H]21` [Example 65, Sodium (3R,5R)-3,5-dihydroxy-7-[(1S,2S,6S,8S,8aR)-6-hydroxy-2-methyl-8-(2-allyl-2-ethyl-4-pentenoyloxy)-1.2.6,7,8,8a-hexahydro-1-naphthyl]heptanoate] were, in that order, 0.19 mg/kg and 36.6 nM.
The like results for `CCC[C@](C)(CC)C(=O)O[C@H]1C[C@H](O)C=C2C=C[C@H](C)[C@H](CC[C@@H](O)C[C@@H](O)CC(=O)O)[C@H]21` [Example 67, Sodium (3R,5R)-3,5-dihydroxy-7-[(2S,2S,6S,8S,8aR)-6-hydroxy-2-methyl-8-(2-ethyl-2-methylvaleryloxy)-1,2,6,7,8,8a-hexahydro-1-naphthyl]heptanoate] were, in that order, 0.048 mg/kg and 32.1 nM.
For the compound `CCCCC(C)(C)C(=O)O[C@H]1C[C@H](O)C=C2C=C[C@H](C)[C@H](CC[C@@H](O)C[C@@H](O)CC(=O)O)[C@H]21` [Example 69, Sodium (3R,5R)-3,5-dihydroxy-7-[(1S,2S,6S,8S,8aR)-6-hydroxy-2-methyl-8-[2,2-dimethylhexanoyloxy)-1,2.6.7,8,8a-hexahydro-1-naphthyl]heptanoate], in assay [1] (setting [3]), the ED50 was found to be 0.028 mg/kg. In assay [2], 32.9 nM corresponded to half-maximal inhibition (IC50).
In the same order, the values of `CCC(C)(C)C(=O)OC1CC(O)C=C2C=CC(C)C(CCC3CC(O)CC(=O)O3)C21` (stereo not shown) [Prior art cpd., reference compound] are 0.58 mg/kg and 44.9 nM.

For the origin of these results see patent US5451688A, “Hexahydronaphthalene ester derivatives, their preparation and their therapeutic uses” (Sankyo Company, Limited, priority 1992, dated 1995).
